Test results published in ChEMBL document CHEMBL5390291, “Glutathione-responsive PROTAC for targeted degradation of ERα in breast cancer cells” (Bioorg Med Chem, 2023).
Blank lines part the entries; values can stand above or below the compound they belong to. Calls of active or inactive are those of the source. No cut-off for these calls is given here.

Columns and labels:
[1] = molecular target: T1, von Hippel-Lindau disease tumor suppressor/Estrogen receptor (Homo sapiens, UniProt P03372+P40337); experiment: PROTAC activity at VHL/ER-alpha in human MCF7 cells assessed as ERalpha degradation incubated for 12 hrs by Western blot analysis; format: cell-based
[2] = molecular target: T1, von Hippel-Lindau disease tumor suppressor/Estrogen receptor; experiment: PROTAC activity at VHL/GFP-tagged ER-alpha in human A549 cells assessed as ERalpha degradation by Western blot analysis; format: cell-based
Target sequence in this assay (P03372 whole entry, looked up): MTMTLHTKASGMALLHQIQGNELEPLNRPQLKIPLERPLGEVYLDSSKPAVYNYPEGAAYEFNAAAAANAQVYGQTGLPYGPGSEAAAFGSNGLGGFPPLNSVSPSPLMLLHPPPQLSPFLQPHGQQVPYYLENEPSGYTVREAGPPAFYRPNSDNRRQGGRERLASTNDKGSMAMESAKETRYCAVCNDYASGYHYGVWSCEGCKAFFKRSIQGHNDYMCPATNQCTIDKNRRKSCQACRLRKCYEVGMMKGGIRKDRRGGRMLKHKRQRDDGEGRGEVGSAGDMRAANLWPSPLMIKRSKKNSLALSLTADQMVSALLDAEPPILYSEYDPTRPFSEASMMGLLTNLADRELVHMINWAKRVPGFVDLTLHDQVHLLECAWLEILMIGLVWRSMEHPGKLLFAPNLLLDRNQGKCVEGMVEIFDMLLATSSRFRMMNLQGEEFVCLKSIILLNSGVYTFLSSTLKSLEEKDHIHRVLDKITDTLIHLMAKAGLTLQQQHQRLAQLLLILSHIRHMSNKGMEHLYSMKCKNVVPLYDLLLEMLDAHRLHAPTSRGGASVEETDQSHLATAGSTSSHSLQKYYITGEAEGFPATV
Target sequence in this assay (P40337 whole entry, looked up): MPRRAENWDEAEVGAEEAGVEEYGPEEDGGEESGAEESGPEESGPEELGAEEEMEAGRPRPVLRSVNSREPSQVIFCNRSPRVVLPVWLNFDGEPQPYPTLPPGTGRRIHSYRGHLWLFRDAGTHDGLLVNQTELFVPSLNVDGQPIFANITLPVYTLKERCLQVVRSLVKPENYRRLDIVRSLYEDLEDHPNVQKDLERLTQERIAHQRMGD

[3] = molecular target: T1, von Hippel-Lindau disease tumor suppressor/Estrogen receptor; experiment: PROTAC activity at VHL/3 Flag-tagged ER-alpha in human A549 cells assessed as ERalpha degradation incubated for 12 hrs by Western blot analysis; format: cell-based; conditions: dose 0.5-10 µM
Target sequence in this assay (P03372 whole entry, looked up): as the sequence (P03372 whole entry, looked up) above
Target sequence in this assay (P40337 whole entry, looked up): as the sequence (P40337 whole entry, looked up) above

[4] = molecular target: T1, von Hippel-Lindau disease tumor suppressor/Estrogen receptor; experiment: PROTAC activity at VHL/3 Flag-tagged ER-alpha in human NCI-H1299 cells assessed as ERalpha degradation incubated for 12 hrs by Western blot analysis; format: cell-based; conditions: dose 0.5-10 µM
Target sequence in this assay (P03372 whole entry, looked up): as the sequence (P03372 whole entry, looked up) above
Target sequence in this assay (P40337 whole entry, looked up): as the sequence (P40337 whole entry, looked up) above

[5] = molecular target: T1, von Hippel-Lindau disease tumor suppressor/Estrogen receptor; experiment: PROTAC activity at VHL/3 Flag-tagged ER-alpha in HBE cells assessed as ERalpha degradation incubated for 12 hrs by Western blot analysis; format: cell-based; conditions: dose 0.5-10 µM
Target sequence in this assay (P03372 whole entry, looked up): as the sequence (P03372 whole entry, looked up) above
Target sequence in this assay (P40337 whole entry, looked up): as the sequence (P40337 whole entry, looked up) above

[6] = GSH reactivity of compound in water/acetonitrile solution assessed as release efficiency at 0.1 mM incubated for 48 hrs by HPLC analysis relative to control; format: physicochemical; conditions: buffer, 100 µM
[7] = Stability of compound in PBS buffer pH 7.4 at 0.1 mM incubated upto 48 hrs by HPLC analysis; format: physicochemical; conditions: pH 7.4, 48 h, 100 µM
[8] = Stability of compound in mouse plasma at 0.1 mM incubated for 8 hrs by HPLC analysis; format: ADME, cell-free; conditions: 100 µM
[9] = molecular target: T1, von Hippel-Lindau disease tumor suppressor/Estrogen receptor; experiment: PROTAC activity at VHL/ER-alpha in human MCF7 cells assessed as ERalpha degradation incubated for 6 hrs by Western blot analysis; format: cell-based; conditions: dose 0.5-2 µM
Target sequence in this assay (P03372 whole entry, looked up): as the sequence (P03372 whole entry, looked up) above
Target sequence in this assay (P40337 whole entry, looked up): as the sequence (P40337 whole entry, looked up) above

[10] = molecular target: T1, von Hippel-Lindau disease tumor suppressor/Estrogen receptor; experiment: PROTAC activity at VHL/ER-alpha in human MCF7 cells assessed as ERalpha degradation at 0.5 uM incubated for 6 hrs by Western blot analysis relative to control; format: cell-based
Target sequence in this assay (P03372 whole entry, looked up): as the sequence (P03372 whole entry, looked up) above
Target sequence in this assay (P40337 whole entry, looked up): as the sequence (P40337 whole entry, looked up) above

[11] = molecular target: T1, von Hippel-Lindau disease tumor suppressor/Estrogen receptor; experiment: PROTAC activity at VHL/ER-alpha in human MCF7 cells assessed as ERalpha degradation at 10 uM incubated for 4 hrs by Western blot analysis; format: cell-based
[12] = molecular target: T1, von Hippel-Lindau disease tumor suppressor/Estrogen receptor; experiment: PROTAC activity at VHL/ER-alpha in human MCF7 cells assessed as ERalpha degradation at 10 uM incubated for 6 hrs by Western blot analysis; format: cell-based
[13] = molecular target: T1, von Hippel-Lindau disease tumor suppressor/Estrogen receptor; experiment: PROTAC activity at VHL/3 Flag-tagged ER-alpha in HBE cells assessed as ERalpha degradation at 0.5 to 10 uM incubated for 6 hr by western blot analysis; format: cell-based; conditions: dose 0.5-10 µM
[14] = molecular target: T1, von Hippel-Lindau disease tumor suppressor/Estrogen receptor; experiment: PROTAC activity at VHL/ER-alpha in human BT-474 cells assessed as ERalpha degradation by Western blot analysis; format: cell-based; conditions: TDE = time-dependent effect
[15] = molecular target: T1, von Hippel-Lindau disease tumor suppressor/Estrogen receptor; experiment: PROTAC activity at VHL/ER-alpha in human MCF7 cells assessed as ERalpha degradation level at 10 uM by Western blot analysis; format: cell-based; conditions: time 3-6 hrs, TDE = time-dependent effect
[16] = molecular target: T1, von Hippel-Lindau disease tumor suppressor/Estrogen receptor; experiment: PROTAC activity at VHL/ER-alpha in human MCF7 cells assessed as ERalpha degradation level at 10 uM incubated 3 to 6 hrs in the presence of NEM by Western blot analysis; format: cell-based; conditions: time 3-6 hrs
[17] = molecular target: T1, von Hippel-Lindau disease tumor suppressor/Estrogen receptor; experiment: PROTAC activity at VHL/3 Flag-tagged ER-alpha in human NCI-H1299 cells assessed as ERalpha degradation incubated for 6 hrs by Western blot analysis; format: cell-based; conditions: dose 0.5-10 µM
[18] = molecular target: T1, von Hippel-Lindau disease tumor suppressor/Estrogen receptor; experiment: PROTAC activity at VHL/ER-alpha in human MCF7 cells assessed as ERalpha degradation at 10 uM preincubated for 1 hr with MG132 followed by compound addition and measured after 6 hrs by Western blot analysis; format: cell-based
[19] = molecular target: T1, von Hippel-Lindau disease tumor suppressor/Estrogen receptor; experiment: PROTAC activity at VHL/ER-alpha in human MCF7 cells assessed as ERalpha degradation level at 10 uM pretreated with tamoxifen followed by compound addition and measured after 6 hrs by Western blot analysis; format: cell-based
[20] = molecular target: T1, von Hippel-Lindau disease tumor suppressor/Estrogen receptor; experiment: PROTAC activity at VHL/ER-alpha in human MCF7 cells assessed as ERalpha degradation level at 10 uM pretreated with VHL-L followed by compound addition and measured after 6 hrs by Western blot analysis; format: cell-based
[21] = molecular target: T1, von Hippel-Lindau disease tumor suppressor/Estrogen receptor; experiment: PROTAC activity at VHL/ER-alpha in human VHL knockdown MCF7 cells assessed as ERalpha degradation level at 10 uM incubated for 6 hrs by Western blot analysis; format: cell-based
MCF7 = experiment: Antiproliferative activity against human MCF7 cells assessed as inhibition of cell growth at 10 uM incubated for 9 days by hemocytometer cell counting analysis; format: functional, cell-based; conditions: time 9.0 day
BT-474 [22] = experiment: Antiproliferative activity against human BT-474 cells assessed as inhibition of cell growth at 10 uM incubated for 3 days by hemocytometer cell counting analysis; format: functional, cell-based; conditions: time 3.0 day
BT-474 [23] = experiment: Antiproliferative activity against human GCLC knockdown BT-474 cells assessed as inhibition of cell growth at 10 uM incubated after 2 days by hemocytometer cell counting analysis; format: functional, cell-based; conditions: time 2.0 day
BT-474 [24] = experiment: Antiproliferative activity against human SLC7A11 knockdown BT-474 cells assessed as inhibition of cell growth at 10 uM incubated after 2 days by hemocytometer cell counting analysis; format: functional, cell-based; conditions: time 2.0 day
[25] = molecular target: T1, von Hippel-Lindau disease tumor suppressor/Estrogen receptor; experiment: PROTAC activity at VHL/ER-alpha in human MCF7 cells assessed as ERalpha degradation at 2 uM incubated for 1 hr by Western blot analysis relative to control; format: cell-based

DC50 [1]: 188 nM
SMILES: Cc1ncsc1-c1ccc(CNC(=O)[C@@H]2C[C@@H](O)CN2C(=O)[C@@H](NC(=O)COCCOCCNC(=O)COc2ccc(C(=O)c3c(-c4ccc(O)cc4)sc4cc(O)ccc34)cc2)C(C)(C)C)cc1

Activity [2]: Active
Activity [3]: Dose-Dependent Effect
Activity [4]: Dose-Dependent Effect
Activity [5]: Dose-Dependent Effect
Activity [6]: 70%
Stability [7]: Stable
Stability [8]: Stable
Activity [9]: Dose-Dependent Effect
Activity [10]: 50%
Activity [11]: Active
Activity [12]: Active
Activity [13]: Active
Activity [14]: Tde
Activity [15]: Tde
Activity [16]: inactive
Activity [17]: Dose-Dependent Effect
Activity [18]: inactive
Activity [19]: inactive
Activity [20]: inactive
Activity [21]: inactive
SMILES: CC/C(=C(\c1ccccc1)c1ccc(OCC(=O)NCCOCCOCC(=O)N[C@H](C(=O)N2C[C@H](OS(=O)(=O)c3ccccc3[N+](=O)[O-])C[C@H]2C(=O)NCc2ccc(-c3scnc3C)cc2)C(C)(C)C)cc1)c1ccccc1
inhibition (MCF7): Active
inhibition (BT-474 [22]): Active
inhibition (BT-474 [23]): inactive
inhibition (BT-474 [24]): inactive

DC50 [1]: 56 nM
Activity ([1]; dose 0.002-2 µM): Dose-Dependent Effect
Activity [25]: 50%
SMILES: CC/C(=C(\c1ccccc1)c1ccc(OCC(=O)NCCOCCOCC(=O)N[C@H](C(=O)N2C[C@H](O)C[C@H]2C(=O)NCc2ccc(-c3scnc3C)cc2)C(C)(C)C)cc1)c1ccccc1
